Reference: patent US20220159955A1, “METHOD OF IMPROVING PLANT GROWTH” (UPL LTD, priority 2020, published 2022)
Entries after “also recorded” stand apart in the source; their conditions may differ.

What was measured:
Type in all cases: in vivo
corn seeds [1] = experiment: Plant vigour visual rating of corn from treated seeds (Example 3); set-up: Average Plant Vigor visual rating: scale not given here
Description: In this experiment the effect was tested on corn seeds. Treated and untreated seeds were sown to see the impact of flonicamid on the plant vigour. A line sowing method was used to sow the seeds.

rice (DSR) [2] = experiment: Seed treatment in rice (DSR): plant height, PGE rating, tillers (Example 4)
transplanted rice [3] = experiment: Seed treatment in transplanted rice: germination and crop safety (Example 5)
transplanted rice [4] = experiment: Seed treatment in transplanted rice: plant height, PGE rating, tillers (Example 5)
rice (DSR) [5] = experiment: Seed treatment in rice (DSR): germination and crop safety (Example 4)
Thrips [6] = experiment: Efficacy of seed treatment on thrips in transplanted rice (Example 5)
corn seeds [7] = experiment: Phytotoxicity after seed treatment, corn; conditions: treatment of seeds
Thrips [8] = experiment: Efficacy of seed treatment on thrips in direct sown rice (Example 4)
corn seeds [9] = experiment: Germination of flonicamid-treated corn seeds, line sowing (Example 2); conditions: for Average germination %: corn seed
Description: In this experiment the effect of flonicamid was tested on corn seeds. Treated and untreated seeds were sown to see the impact of flonicamid on the plant germination. Treatments are performed using FS formulation of example 1. A line sowing method was used to sow the seeds.

rice (DSR) [10] = experiment: Seed treatment in rice (DSR): rice grain yield (Example 4)

N#CCNC(=O)c1cnccc1C(F)(F)F [Flonicamid, N-cyanomethyl-4-trifluoromethylnicotinamide]
Average Plant Vigor visual rating (corn seeds [1]; 5 g/ml/kg Seed, 10DAS): 2 | Average Plant Vigor visual rating (corn seeds [1]; 5 g/ml/kg Seed, 20DAS): 1 | Average Plant Vigor visual rating (corn seeds [1]; 5 g/ml/kg Seed, 30DAS): 1 | Average Plant Vigor visual rating (corn seeds [1]; 5 g/ml/kg Seed, 40DAS): 1 | Average Plant Vigor visual rating (corn seeds [1]; 10 g/ml/kg Seed, 10DAS): 2 | Average Plant Vigor visual rating (corn seeds [1]; 10 g/ml/kg Seed, 20DAS): 1 | Average Plant Vigor visual rating (corn seeds [1]; 10 g/ml/kg Seed, 30DAS): 1 | Average Plant Vigor visual rating (corn seeds [1]; 10 g/ml/kg Seed, 40DAS): 1 | growth versus untreated control (in words) (corn seeds [1]; 30 days after sowing): Excellent growth | PGE rating (rice (DSR) [2]; 5 ml/kg Seed, 15 DAS): 2 | Plant hight (cm) (rice (DSR) [2]; 5 ml/kg Seed, 15 DAS): 12.83 cm | Plant hight (cm) (rice (DSR) [2]; 5 ml/kg Seed, 20 DAS): 22.45 cm | PGE rating (rice (DSR) [2]; 5 ml/kg Seed, 30 DAS): 2 | No. of tiller/hill (rice (DSR) [2]; 5 ml/kg Seed, 45 DAS): 13.5 tiller/hill | PGE rating (rice (DSR) [2]; 5 ml/kg Seed, 45 DAS): 3 | No. of tiller/hill (rice (DSR) [2]; 5 ml/kg Seed, 60 DAS): 15.3 tiller/hill | PGE rating (rice (DSR) [2]; 10 ml/kg Seed, 15 DAS): 1 | Plant hight (cm) (rice (DSR) [2]; 10 ml/kg Seed, 15 DAS): 15.33 cm | Plant hight (cm) (rice (DSR) [2]; 10 ml/kg Seed, 20 DAS): 26.66 cm | PGE rating (rice (DSR) [2]; 10 ml/kg Seed, 30 DAS): 1 | No. of tiller/hill (rice (DSR) [2]; 10 ml/kg Seed, 45 DAS): 17.2 tiller/hill | PGE rating (rice (DSR) [2]; 10 ml/kg Seed, 45 DAS): 2 | No. of tiller/hill (rice (DSR) [2]; 10 ml/kg Seed, 60 DAS): 19.7 tiller/hill | crop vigour parameter (in words) (rice (DSR) [2]; seed treatment vs untreated): improvement in crop vigour parameter | % Germination (transplanted rice [3]; 5 ml/kg Seed): 86% | No. of germinated seed/sq · m (transplanted rice [3]; 5 ml/kg Seed, 5DAS): 98 seed/sq · m | No. of germinated seed/sq · m (transplanted rice [3]; 5 ml/kg Seed, 10DAS): 102 seed/sq · m | No. of germinated seed/sq · m (transplanted rice [3]; 5 ml/kg Seed, 15DAS): 108 seed/sq · m | % Germination (transplanted rice [3]; 10 ml/kg Seed): 98% | No. of germinated seed/sq · m (transplanted rice [3]; 10 ml/kg Seed, 5DAS): 110 seed/sq · m | No. of germinated seed/sq · m (transplanted rice [3]; 10 ml/kg Seed, 10DAS): 120 seed/sq · m | No. of germinated seed/sq · m (transplanted rice [3]; 10 ml/kg Seed, 15DAS): 128 seed/sq · m | Plant height (cm) (transplanted rice [4]; 5 ml/kg Seed, 15DAS): 51.5 cm | Plant height (cm) (transplanted rice [4]; 5 ml/kg Seed, 20DAS): 72.8 cm | PGE rating (transplanted rice [4]; 5 ml/kg Seed, 30 DAS): 2 | No. of tiller/hill (transplanted rice [4]; 5 ml/kg Seed, 45DAS): 20.8 tiller/hill | PGE rating (transplanted rice [4]; 5 ml/kg Seed, 45DAS): 2 | No. of tiller/hill (transplanted rice [4]; 5 ml/kg Seed, 60DAS): 22.6 tiller/hill | Plant height (cm) (transplanted rice [4]; 10 ml/kg Seed, 15DAS): 58.4 cm | Plant height (cm) (transplanted rice [4]; 10 ml/kg Seed, 20DAS): 78.5 cm | PGE rating (transplanted rice [4]; 10 ml/kg Seed, 30 DAS): 1 | No. of tiller/hill (transplanted rice [4]; 10 ml/kg Seed, 45DAS): 25.6 tiller/hill | PGE rating (transplanted rice [4]; 10 ml/kg Seed, 45DAS): 1 | No. of tiller/hill (transplanted rice [4]; 10 ml/kg Seed, 60DAS): 28.5 tiller/hill | % Germination (rice (DSR) [5]; 5 ml/kg Seed): 90% | No. of germinated seed/sq · m (rice (DSR) [5]; 5 ml/kg Seed, 5DAS): 65.3 seed/sq · m | No. of germinated seed/sq · m (rice (DSR) [5]; 5 ml/kg Seed, 10DAS): 69.6 seed/sq · m | No. of germinated seed/sq · m (rice (DSR) [5]; 5 ml/kg Seed, 15 DAS): 70.6 seed/sq · m | % Germination (rice (DSR) [5]; 10 ml/kg Seed): 98% | No. of germinated seed/sq · m (rice (DSR) [5]; 10 ml/kg Seed, 5DAS): 70.6 seed/sq · m | No. of germinated seed/sq · m (rice (DSR) [5]; 10 ml/kg Seed, 10DAS): 73.3 seed/sq · m | No. of germinated seed/sq · m (rice (DSR) [5]; 10 ml/kg Seed, 15 DAS): 78.6 seed/sq · m | plant growth/germination (in words) (rice (DSR) [5]; seed treatment vs untreated): enhanced plant growth/germination | No. of Thrips/Seedling (Thrips [6]; 5 ml/kg Seed, 15DAS): 2.5 Thrips /Seedling | No. of Thrips/Seedling (Thrips [6]; 5 ml/kg Seed, 20DAS): 7.2 Thrips /Seedling | No. of Thrips/Seedling (Thrips [6]; 5 ml/kg Seed, 25DAS): 11.5 Thrips /Seedling | No. of Thrips/Seedling (Thrips [6]; 10 ml/kg Seed, 15DAS): 1.2 Thrips /Seedling | No. of Thrips/Seedling (Thrips [6]; 10 ml/kg Seed, 20DAS): 5.6 Thrips /Seedling | No. of Thrips/Seedling (Thrips [6]; 10 ml/kg Seed, 25DAS): 9.3 Thrips /Seedling | phytotoxicity (corn seeds [7]): no phytotoxicity was observed | No. of Thrips/Seedling (Thrips [8]; 5 ml/kg Seed, 15DAS): 4.5 Thrips/Seedling | No. of Thrips/Seedling (Thrips [8]; 5 ml/kg Seed, 20DAS): 8.3 Thrips/Seedling | No. of Thrips/Seedling (Thrips [8]; 5 ml/kg Seed, 25DAS): 12.3 Thrips/Seedling | No. of Thrips/Seedling (Thrips [8]; 10 ml/kg Seed, 15DAS): 1.3 Thrips/Seedling | No. of Thrips/Seedling (Thrips [8]; 10 ml/kg Seed, 20DAS): 4.8 Thrips/Seedling | No. of Thrips/Seedling (Thrips [8]; 10 ml/kg Seed, 25DAS): 7.2 Thrips/Seedling | control of thrips (in words) (Thrips [8]; seed treatment vs untreated): better control of thrips | Average germination % (corn seeds [9]; 5 g/ml/kg Seed, 5DAS): 77.5% | Average germination % (corn seeds [9]; 5 g/ml/kg Seed, 10DAS): 97.5% | Average germination % (corn seeds [9]; 5 g/ml/kg Seed, 15DAS): 97.5% | Average germination % (corn seeds [9]; 10 g/ml/kg Seed, 5DAS): 82.5% | Average germination % (corn seeds [9]; 10 g/ml/kg Seed, 10DAS): 98% | Average germination % (corn seeds [9]; 10 g/ml/kg Seed, 15DAS): 98% | germination of tested corn seeds (in words) (corn seeds [9]; corn, seed treatment vs untreated): significant improvement in germination; also recorded: Enhanced germination % | Rice grain yield t/ha (rice (DSR) [10]; 5 ml/kg Seed): 4.53 t/ha | Rice grain yield t/ha (rice (DSR) [10]; 10 ml/kg Seed): 4.85 t/ha
